Measurements taken from patent US9550772B2, “Azaindole derivatives as multi kinase inhibitors” (ORIBASE PHARMA, priority 2012, dated 2017).

Experiments:
BRAF = biological target: T1, BRAF (Homo sapiens, UniProt P15056); assay: In vitro kinase assay (Z'-LYTE, Invitrogen); format: biochemical; conditions: compound at 100 nM, ATP Km apparent, read-out: % of inhibition of the kinase compared to the control
T1 construct: purchased Invitrogen
Outline: (§1)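 Compounds were tested at 100 nM in 1% DMSO final against each kinase with its peptide substrate, ATP at apparent Km, in 50 mM HEPES pH 7.5 with 10 mM MgCl2, 1 mM EGTA, 0.01% BRIJ-35. Phosphorylation was quantified by Z′-LYTE coupled protease/FRET emission ratio.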

EGFR (ErbB1) = biological target: T2, EGFR (ErbB1) (Homo sapiens, UniProt P00533); assay: In vitro kinase assay (Z'-LYTE, Invitrogen); format: biochemical; conditions: compound at 100 nM, ATP Km apparent, read-out: % of inhibition of the kinase compared to the control
T2 construct: purchased Invitrogen
T2 sequence (P00533 25-1210): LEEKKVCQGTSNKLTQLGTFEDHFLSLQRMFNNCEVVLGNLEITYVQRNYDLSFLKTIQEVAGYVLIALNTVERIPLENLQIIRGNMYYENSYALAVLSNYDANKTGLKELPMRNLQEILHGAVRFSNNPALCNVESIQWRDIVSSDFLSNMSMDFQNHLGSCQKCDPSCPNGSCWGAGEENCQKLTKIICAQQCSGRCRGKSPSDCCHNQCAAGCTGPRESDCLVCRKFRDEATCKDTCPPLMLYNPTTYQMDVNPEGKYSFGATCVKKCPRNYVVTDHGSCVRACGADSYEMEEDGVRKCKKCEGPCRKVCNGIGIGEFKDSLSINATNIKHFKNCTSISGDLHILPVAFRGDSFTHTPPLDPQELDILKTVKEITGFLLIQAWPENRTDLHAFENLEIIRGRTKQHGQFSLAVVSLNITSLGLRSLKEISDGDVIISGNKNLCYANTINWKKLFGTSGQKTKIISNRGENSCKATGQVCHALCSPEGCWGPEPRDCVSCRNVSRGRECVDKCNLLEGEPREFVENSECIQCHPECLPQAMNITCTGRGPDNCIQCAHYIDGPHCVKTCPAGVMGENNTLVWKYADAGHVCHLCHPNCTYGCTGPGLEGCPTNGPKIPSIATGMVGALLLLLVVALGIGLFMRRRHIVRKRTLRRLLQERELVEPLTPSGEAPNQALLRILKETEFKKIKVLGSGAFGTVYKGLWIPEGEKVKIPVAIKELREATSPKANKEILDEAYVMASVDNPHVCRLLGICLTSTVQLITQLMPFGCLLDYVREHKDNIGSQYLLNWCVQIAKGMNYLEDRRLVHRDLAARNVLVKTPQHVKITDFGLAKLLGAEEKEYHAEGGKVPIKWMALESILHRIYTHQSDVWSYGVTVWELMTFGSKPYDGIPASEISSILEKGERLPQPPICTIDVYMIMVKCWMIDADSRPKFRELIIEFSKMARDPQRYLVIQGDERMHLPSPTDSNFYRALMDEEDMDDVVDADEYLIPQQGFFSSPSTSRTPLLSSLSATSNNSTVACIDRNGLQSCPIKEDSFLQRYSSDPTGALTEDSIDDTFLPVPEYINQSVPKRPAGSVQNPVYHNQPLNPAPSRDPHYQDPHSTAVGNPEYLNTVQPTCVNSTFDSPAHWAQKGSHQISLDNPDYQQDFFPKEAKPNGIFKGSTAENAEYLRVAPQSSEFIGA
Outline: as §1

FGFR2 = biological target: T3, FGFR2 (Homo sapiens, UniProt P21802); assay: In vitro kinase assay (Z'-LYTE, Invitrogen); format: biochemical; conditions: compound at 100 nM, ATP Km apparent, read-out: % of inhibition of the kinase compared to the control
T3 construct: purchased Invitrogen
T3 sequence (P21802 22-821): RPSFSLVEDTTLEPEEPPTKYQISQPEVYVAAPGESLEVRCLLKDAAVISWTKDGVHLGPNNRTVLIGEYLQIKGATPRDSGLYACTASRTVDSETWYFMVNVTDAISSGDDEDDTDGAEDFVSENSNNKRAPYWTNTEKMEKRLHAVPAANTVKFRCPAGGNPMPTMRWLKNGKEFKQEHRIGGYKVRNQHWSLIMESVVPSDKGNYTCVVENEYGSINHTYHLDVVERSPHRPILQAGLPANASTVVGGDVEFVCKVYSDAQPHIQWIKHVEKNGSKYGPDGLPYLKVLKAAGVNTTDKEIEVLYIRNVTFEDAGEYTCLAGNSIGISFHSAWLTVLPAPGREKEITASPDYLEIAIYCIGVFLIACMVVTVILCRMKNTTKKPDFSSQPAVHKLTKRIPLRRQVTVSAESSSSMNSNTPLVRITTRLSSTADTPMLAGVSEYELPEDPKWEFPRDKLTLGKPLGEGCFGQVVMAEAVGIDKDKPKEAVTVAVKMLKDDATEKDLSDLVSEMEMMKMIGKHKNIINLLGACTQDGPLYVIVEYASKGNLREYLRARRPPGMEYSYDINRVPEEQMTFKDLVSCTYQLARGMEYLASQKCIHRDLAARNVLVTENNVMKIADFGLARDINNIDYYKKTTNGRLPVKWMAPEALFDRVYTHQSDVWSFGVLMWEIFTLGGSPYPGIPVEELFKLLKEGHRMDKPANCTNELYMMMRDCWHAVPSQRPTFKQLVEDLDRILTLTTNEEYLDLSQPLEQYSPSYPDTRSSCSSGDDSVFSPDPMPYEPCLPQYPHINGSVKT
Outline: as §1

KDR (VEGFR2) = biological target: T4, KDR (VEGFR2) (Homo sapiens, UniProt P35968); assay: In vitro kinase assay (Z'-LYTE, Invitrogen); format: biochemical; conditions: compound at 100 nM, ATP Km apparent, read-out: % of inhibition of the kinase compared to the control
T4 construct: purchased Invitrogen
T4 sequence (P35968 20-1356): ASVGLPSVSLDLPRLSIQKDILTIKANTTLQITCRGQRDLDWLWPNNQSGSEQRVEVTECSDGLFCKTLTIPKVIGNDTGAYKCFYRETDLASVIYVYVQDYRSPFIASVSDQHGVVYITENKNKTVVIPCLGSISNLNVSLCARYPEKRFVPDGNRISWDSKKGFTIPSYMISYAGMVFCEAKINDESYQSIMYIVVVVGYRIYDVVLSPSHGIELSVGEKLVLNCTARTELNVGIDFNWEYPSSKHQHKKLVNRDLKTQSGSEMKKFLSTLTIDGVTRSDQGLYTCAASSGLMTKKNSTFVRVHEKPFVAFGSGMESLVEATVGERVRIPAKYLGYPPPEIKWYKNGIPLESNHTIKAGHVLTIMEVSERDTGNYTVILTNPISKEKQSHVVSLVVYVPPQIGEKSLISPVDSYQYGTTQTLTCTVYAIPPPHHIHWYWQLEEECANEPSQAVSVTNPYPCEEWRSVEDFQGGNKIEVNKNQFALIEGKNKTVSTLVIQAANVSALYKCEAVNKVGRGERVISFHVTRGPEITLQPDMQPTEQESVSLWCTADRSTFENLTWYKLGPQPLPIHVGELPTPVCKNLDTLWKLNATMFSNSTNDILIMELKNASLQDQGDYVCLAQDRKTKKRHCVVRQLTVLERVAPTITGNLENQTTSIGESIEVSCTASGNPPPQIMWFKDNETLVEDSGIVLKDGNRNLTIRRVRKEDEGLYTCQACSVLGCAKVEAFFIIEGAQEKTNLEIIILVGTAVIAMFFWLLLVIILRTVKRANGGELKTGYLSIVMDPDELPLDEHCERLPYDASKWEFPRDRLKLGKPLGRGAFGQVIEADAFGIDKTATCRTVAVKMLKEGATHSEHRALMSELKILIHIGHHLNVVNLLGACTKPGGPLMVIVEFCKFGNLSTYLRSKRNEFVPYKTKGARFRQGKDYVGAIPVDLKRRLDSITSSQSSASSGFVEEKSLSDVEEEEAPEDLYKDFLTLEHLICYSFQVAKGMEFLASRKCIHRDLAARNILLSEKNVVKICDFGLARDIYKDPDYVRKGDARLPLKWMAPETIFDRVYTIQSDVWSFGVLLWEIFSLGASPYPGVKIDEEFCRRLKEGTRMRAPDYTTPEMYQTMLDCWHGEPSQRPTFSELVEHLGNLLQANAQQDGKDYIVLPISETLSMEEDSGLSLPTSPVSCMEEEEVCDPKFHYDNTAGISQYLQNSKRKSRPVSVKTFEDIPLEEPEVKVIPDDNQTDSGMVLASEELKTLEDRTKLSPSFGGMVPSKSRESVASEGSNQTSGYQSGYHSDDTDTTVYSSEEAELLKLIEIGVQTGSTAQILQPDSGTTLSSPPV
Outline: as §1

PDGFRA (PDGFR alpha) = biological target: T5, PDGFRA (PDGFR alpha) (Homo sapiens, UniProt P16234); assay: In vitro kinase assay (Z'-LYTE, Invitrogen); format: biochemical; conditions: compound at 100 nM, ATP Km apparent, read-out: % of inhibition of the kinase compared to the control
T5 construct: purchased Invitrogen
Outline: as §1

SRC = biological target: T6, SRC (Homo sapiens, UniProt P12931); assay: In vitro kinase assay (Z'-LYTE, Invitrogen); format: biochemical; conditions: compound at 100 nM, ATP Km apparent, read-out: % of inhibition of the kinase compared to the control
T6 construct: purchased Invitrogen
T6 sequence (P12931 whole entry): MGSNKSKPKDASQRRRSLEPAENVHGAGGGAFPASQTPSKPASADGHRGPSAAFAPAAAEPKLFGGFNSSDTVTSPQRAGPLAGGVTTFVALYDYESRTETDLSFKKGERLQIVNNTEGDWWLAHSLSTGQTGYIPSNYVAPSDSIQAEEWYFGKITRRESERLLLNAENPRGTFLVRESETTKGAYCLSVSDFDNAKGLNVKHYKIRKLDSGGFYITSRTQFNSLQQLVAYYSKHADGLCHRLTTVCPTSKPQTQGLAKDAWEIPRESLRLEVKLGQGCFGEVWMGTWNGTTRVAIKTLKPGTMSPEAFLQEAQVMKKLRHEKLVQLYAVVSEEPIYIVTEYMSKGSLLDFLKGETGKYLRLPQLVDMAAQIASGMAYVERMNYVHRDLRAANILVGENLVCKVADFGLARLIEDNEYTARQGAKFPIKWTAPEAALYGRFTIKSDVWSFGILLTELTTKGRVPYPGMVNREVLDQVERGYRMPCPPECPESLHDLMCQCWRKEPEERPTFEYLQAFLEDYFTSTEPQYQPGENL
Outline: as §1

A549 cell line = assay: In vitro cell proliferation assay (MTT); format: cell-based; conditions: Homo sapiens, A549, 72 h, EC50 ≦ 100 nM, read-out: EC50, anti-proliferative activity
Outline: (§2)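 Duplicate 72 hr treatments spanning 10 nM–3 μM compound preceded MTT measurement of growth. Sigmoidal fitting yielded EC50, with normalization against DMSO controls set at 0% and 1% SDS controls set at 100%.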

H1975 cell line = assay: In vitro cell proliferation assay (MTT); format: cell-based; conditions: Homo sapiens, NCI-H1975, H1975, 72 hr, EC50 ≧ 1 μM, read-out: EC50, anti-proliferative activity
Outline: as §2

HRMEC cells = assay: In vitro cell proliferation assay (MTT); format: cell-based; conditions: 72 hr, 100 nM < EC50 < 1 μM, read-out: EC50, anti-proliferative activity
Outline: as §2

HT29 cell line = assay: In vitro cell proliferation assay (MTT); format: cell-based; conditions: Homo sapiens, HT-29, HT29, 72 hr, EC50 ≧ 1 μM, read-out: EC50, anti-proliferative activity
Outline: as §2

HUVEC cells = assay: In vitro cell proliferation assay (MTT); format: cell-based; conditions: Homo sapiens, 72 hr, 100 nM < EC50 < 1 μM, read-out: EC50, anti-proliferative activity
Outline: as §2

HeLa cell line = assay: In vitro cell proliferation assay (MTT); format: cell-based; conditions: Homo sapiens, 72 hr, 100 nM < EC50 < 1 μM, read-out: EC50, anti-proliferative activity
Outline: as §2

HepG2 cell line = assay: In vitro cell proliferation assay (MTT); format: cell-based; conditions: Homo sapiens, HepG2, 72 hr, 100 nM < EC50 < 1 μM, read-out: EC50, anti-proliferative activity
Outline: as §2

HuH7 cell line = assay: In vitro cell proliferation assay (MTT); format: cell-based; conditions: Homo sapiens, Huh-7, HuH7, 72 hr, 100 nM < EC50 < 1 μM, read-out: EC50, anti-proliferative activity
Outline: as §2

MDA-MB-231 cell line = assay: In vitro cell proliferation assay (MTT); format: cell-based; conditions: Homo sapiens, MDA-MB-231, 72 hr, 100 nM < EC50 < 1 μM, read-out: EC50, anti-proliferative activity
Outline: as §2

T1 sequence (P15056 whole entry): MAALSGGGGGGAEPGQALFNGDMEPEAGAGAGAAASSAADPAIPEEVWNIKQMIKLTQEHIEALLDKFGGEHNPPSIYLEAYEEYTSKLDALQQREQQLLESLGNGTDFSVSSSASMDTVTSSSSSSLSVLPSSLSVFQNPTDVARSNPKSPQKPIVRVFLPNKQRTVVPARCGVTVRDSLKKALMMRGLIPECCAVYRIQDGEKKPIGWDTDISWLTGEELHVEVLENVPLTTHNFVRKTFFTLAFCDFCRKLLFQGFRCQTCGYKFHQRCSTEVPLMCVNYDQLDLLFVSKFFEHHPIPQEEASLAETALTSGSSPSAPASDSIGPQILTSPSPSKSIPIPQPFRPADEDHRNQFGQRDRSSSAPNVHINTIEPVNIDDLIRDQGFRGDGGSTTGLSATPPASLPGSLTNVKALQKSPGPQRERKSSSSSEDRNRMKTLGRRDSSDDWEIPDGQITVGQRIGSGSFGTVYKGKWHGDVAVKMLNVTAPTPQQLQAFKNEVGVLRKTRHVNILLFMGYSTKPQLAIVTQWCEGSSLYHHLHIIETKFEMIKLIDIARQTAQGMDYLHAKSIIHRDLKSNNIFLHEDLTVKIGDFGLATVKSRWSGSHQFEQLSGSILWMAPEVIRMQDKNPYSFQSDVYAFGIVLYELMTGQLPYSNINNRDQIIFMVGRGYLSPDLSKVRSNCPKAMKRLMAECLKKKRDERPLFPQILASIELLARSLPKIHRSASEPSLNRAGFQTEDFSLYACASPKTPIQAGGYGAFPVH

## CC(=O)c1cc2cc(CCc3cc(NC(=O)c4ccc(CN5CC[C@H](N(C)C)C5)c(C(F)(F)F)c4)ccc3C)cnc2[nH]1 [OR0812, N-{3-[2-(2-Acetyl-1H-pyrrolo[2,3-b]pyridin-5-yl)-ethyl]-4-methyl-phenyl}-4-((S)-3-dimethylamino-pyrrolidin-1-ylmethyl)-3-trifluoromethyl-benzamide]
BRAF
  inhibition at 0.1 µM: ≥ 50%
EGFR (ErbB1)
  inhibition at 0.1 µM: ≥ 50%
FGFR2
  inhibition at 0.1 µM: ≥ 50%
KDR (VEGFR2)
  inhibition at 0.1 µM: ≥ 50%
PDGFRA (PDGFR alpha)
  inhibition at 0.1 µM: ≥ 50%
SRC
  inhibition at 0.1 µM: ≥ 50%
A549 cell line
  EC50: ≤ 100 nM
H1975 cell line
  EC50: ≥ 1000 nM
HRMEC cells
  EC50: 100 to 1000 nM
HT29 cell line
  EC50: ≥ 1000 nM
HUVEC cells
  EC50: 100 to 1000 nM
HeLa cell line
  EC50: 100 to 1000 nM
HepG2 cell line
  EC50: 100 to 1000 nM
HuH7 cell line
  EC50: 100 to 1000 nM
MDA-MB-231 cell line
  EC50: 100 to 1000 nM
